Reference: patent EP0093484A2, “Antibacterial monic acid derivatives” (BEECHAM GROUP PLC, priority 1982, dated 1983)

Experiments:
[1] = test system: M. suipneumoniae ATCC 25095; test: Anti-mycoplasmal activity, MIC in Friis broth agarose; format: cell-based; conditions: Friis broth solidified with 0.9% agarose, 6 days incubation at 37°C
[2] = test system: M. suipneumoniae MS16; test: as above; format: cell-based; conditions: Friis broth solidified with 0.9% agarose, 6 days incubation at 37°C
[3] = test system: S. typhimurium S18; test: Veterinary bacteria, MIC by two fold serial dilution in agar; conditions: S. typhimurium S18; Diagnostic Sensitivity Test Agar; 18 hours at 37°C
Description: (§1) The activity of the compounds of the Examples against various organisms important in veterinary infections was determined using two fold serial dilutions in Diagnostic Sensitivity Test Agar inoculated with 10^4 organisms.

[4] = test system: Bacillus subtilis 6633; test: Human bacteria, MIC by serial dilution in nutrient agar; format: cell-based; conditions: nutrient agar with 5% chocolated horse blood, 18 hours at 37°C
[5] = test system: Strep. agalactiae SPA1; test: Veterinary bacteria, MIC by two fold serial dilution in agar; conditions: Strep. agalactiae SPA1; Diagnostic Sensitivity Test Agar; 18 hours at 37°C
Description: as §1

[6] = test system: Strep. suis (group D) SPS11; test: as above; conditions: Strep. suis (group D) SPS11; Diagnostic Sensitivity Test Agar; 18 hours at 37°C
Description: as §1

[7] = test system: Haemophilus influenzae Wy21; test: Human bacteria, MIC by serial dilution in nutrient agar; format: cell-based; conditions: nutrient agar with 5% chocolated horse blood, 18 hours at 37°C
[8] = test system: Staph. aureus 152 (pen. sens.); test: Veterinary bacteria, MIC by two fold serial dilution in agar; conditions: Staph. aureus 152 (pen. sens.); Diagnostic Sensitivity Test Agar; 18 hours at 37°C
Description: as §1

[9] = test system: Strep. faecalis I; test: Human bacteria, MIC by serial dilution in nutrient agar; format: cell-based; conditions: nutrient agar with 5% chocolated horse blood, 18 hours at 37°C
[10] = test system: E. coli NCTC 10418; test: as above; format: cell-based; conditions: E. coli NCTC 10418 (human panel); nutrient agar with 5% chocolated horse blood; 18 hours at 37°C
[11] = test system: M. suipneumoniae NCTC 10110; test: Anti-mycoplasmal activity, MIC in Friis broth agarose; format: cell-based; conditions: Friis broth solidified with 0.9% agarose, 6 days incubation at 37°C
[12] = test system: M. dispar NCTC 10125; test: as above; format: cell-based; conditions: Friis broth solidified with 0.9% agarose, 6 days incubation at 37°C
[13] = test system: Erysipelothrix rhusiopathiae NCTC 8163; test: Veterinary bacteria, MIC by two fold serial dilution in agar; conditions: Erysipelothrix rhusiopathiae NCTC 8163; Diagnostic Sensitivity Test Agar; 18 hours at 37°C
Description: as §1

[14] = test system: Strep. pyogenes R80/421-A; test: Human bacteria, MIC by serial dilution in nutrient agar; format: cell-based; conditions: nutrient agar with 5% chocolated horse blood, 18 hours at 37°C
[15] = test system: Strep. agalactiae 2788-B; test: as above; format: cell-based; conditions: nutrient agar with 5% chocolated horse blood, 18 hours at 37°C
[16] = test system: Staph. aureus Oxford; test: as above; format: cell-based; conditions: Staph. aureus Oxford (human panel); nutrient agar with 5% chocolated horse blood; 18 hours at 37°C
[17] = test system: K. aerogenes A; test: as above; format: cell-based; conditions: nutrient agar with 5% chocolated horse blood, 18 hours at 37°C
[18] = test system: M. suipneumoniae JF 435; test: Anti-mycoplasmal activity, MIC in Friis broth agarose; format: cell-based; conditions: Friis broth solidified with 0.9% agarose, 6 days incubation at 37°C
[19] = test system: S. dublin S7; test: Veterinary bacteria, MIC by two fold serial dilution in agar; conditions: S. dublin S7; Diagnostic Sensitivity Test Agar; 18 hours at 37°C
Description: as §1

[20] = test system: M. suipneumoniae TAM 6N; test: Anti-mycoplasmal activity, MIC in Friis broth agarose; format: cell-based; conditions: Friis broth solidified with 0.9% agarose, 6 days incubation at 37°C
[21] = test system: M. suipneumoniae NB12; test: as above; format: cell-based; conditions: Friis broth solidified with 0.9% agarose, 6 days incubation at 37°C
[22] = test system: Bord. bronchiseptica B08; test: Veterinary bacteria, MIC by two fold serial dilution in agar; conditions: Bord. bronchiseptica B08; Diagnostic Sensitivity Test Agar; 18 hours at 37°C
Description: as §1

[23] = test system: P. mirabilis 889; test: Human bacteria, MIC by serial dilution in nutrient agar; format: cell-based; conditions: nutrient agar with 5% chocolated horse blood, 18 hours at 37°C
[24] = test system: Staph. aureus Oxford; test: Veterinary bacteria, MIC by two fold serial dilution in agar; conditions: Staph. aureus Oxford (veterinary panel); Diagnostic Sensitivity Test Agar; 18 hours at 37°C
Description: as §1

[25] = test system: Staph. aureus Russell; test: Human bacteria, MIC by serial dilution in nutrient agar; format: cell-based; conditions: nutrient agar with 5% chocolated horse blood, 18 hours at 37°C
[26] = test system: Past. multocida PA2; test: Veterinary bacteria, MIC by two fold serial dilution in agar; conditions: Past. multocida PA2; Diagnostic Sensitivity Test Agar; 18 hours at 37°C
Description: as §1

[27] = test system: M. hyorhinis ATCC 23234; test: Anti-mycoplasmal activity, MIC in Friis broth agarose; format: cell-based; conditions: Friis broth solidified with 0.9% agarose, 6 days incubation at 37°C
[28] = test system: Strep. spp. 64/848-C; test: Human bacteria, MIC by serial dilution in nutrient agar; format: cell-based; conditions: nutrient agar with 5% chocolated horse blood, 18 hours at 37°C
[29] = test system: M. suipneumoniae HK(2); test: Anti-mycoplasmal activity, MIC in Friis broth agarose; format: cell-based; conditions: Friis broth solidified with 0.9% agarose, 6 days incubation at 37°C
[30] = test system: E. coli E1; test: Veterinary bacteria, MIC by two fold serial dilution in agar; conditions: E. coli E1; Diagnostic Sensitivity Test Agar; 18 hours at 37°C
Description: as §1

[31] = test system: Corynebacterium xerosis 9755; test: Human bacteria, MIC by serial dilution in nutrient agar; format: cell-based; conditions: nutrient agar with 5% chocolated horse blood, 18 hours at 37°C
[32] = test system: Staph. aureus W2827; test: as above; format: cell-based; conditions: nutrient agar with 5% chocolated horse blood, 18 hours at 37°C
[33] = test system: M. suipneumoniae J2206/183b; test: Anti-mycoplasmal activity, MIC in Friis broth agarose; format: cell-based; conditions: Friis broth solidified with 0.9% agarose, 6 days incubation at 37°C
[34] = test system: Strep. dysgalactiae SPD1; test: Veterinary bacteria, MIC by two fold serial dilution in agar; conditions: Strep. dysgalactiae SPD1; Diagnostic Sensitivity Test Agar; 18 hours at 37°C
Description: as §1

[35] = test system: M. gallisepticum S6; test: Anti-mycoplasmal activity, MIC in Friis broth agarose; format: cell-based; conditions: Friis broth solidified with 0.9% agarose, 6 days incubation at 37°C
[36] = test system: Sarcina lutea 8340; test: Human bacteria, MIC by serial dilution in nutrient agar; format: cell-based; conditions: nutrient agar with 5% chocolated horse blood, 18 hours at 37°C
[37] = test system: E. coli ESS; test: as above; format: cell-based; conditions: nutrient agar with 5% chocolated horse blood, 18 hours at 37°C
[38] = test system: M. bovis NCTC 10131; test: microbe, parasite or virus in culture; format: cell-based; conditions: M. bovis NCTC 10131; Friis broth solidified with 0.9% agarose; 6 days incubation at 37°C
[39] = test system: Ps. aeruginosa 10662; test: Human bacteria, MIC by serial dilution in nutrient agar; format: cell-based; conditions: nutrient agar with 5% chocolated horse blood, 18 hours at 37°C
[40] = test system: Haemophilus influenzae Q1; test: as above; format: cell-based; conditions: nutrient agar with 5% chocolated horse blood, 18 hours at 37°C

## m-Methylthiobenzyl monate A [Example 5]
[1]
  MIC: 0.5 µg/mL
[2]
  MIC: 0.25 µg/mL
[3]
  MIC: >80 µg/mL
[4]
  MIC: 0.1 µg/mL
[5]
  MIC: .312 µg/mL
[6]
  MIC: 1.25 µg/mL
[7]
  MIC: 1.0 µg/mL
[8]
  MIC: .156 µg/mL
[9]
  MIC: 100 µg/mL
[10]
  MIC: >100 µg/mL
[11]
  MIC: 0.5 µg/mL
[12]
  MIC: 0.1 µg/mL
[13]
  MIC: 5 µg/mL
[14]
  MIC: 0.1 µg/mL
[15]
  MIC: 1.0 µg/mL
[16]
  MIC: 0.5 µg/mL
[17]
  MIC: >100 µg/mL
[18]
  MIC: 0.5 µg/mL
[19]
  MIC: >80 µg/mL
[20]
  MIC: 0.5 µg/mL
[21]
  MIC: 0.5 µg/mL
[22]
  MIC: 10 µg/mL
[23]
  MIC: >100 µg/mL
[24]
  MIC: .156 µg/mL
[25]
  MIC: 1.0 µg/mL
[26]
  MIC: .625 µg/mL
[27]
  MIC: 0.25 µg/mL
[28]
  MIC: 1.0 µg/mL
[29]
  MIC: 0.5 µg/mL
[30]
  MIC: >80 µg/mL
[31]
  MIC: >100 µg/mL
[32]
  MIC: 0.5 µg/mL
[33]
  MIC: 0.5 µg/mL
[34]
  MIC: .07 µg/mL
[35]
  MIC: 5.0 µg/mL
[36]
  MIC: >100 µg/mL
[37]
  MIC: 5.0 µg/mL
[38]
  MIC: 0.025 µg/mL
[39]
  MIC: >100 µg/mL
[40]
  MIC: 1.0 µg/mL
